Each structure is given as a SMILES string.

A short description of this data set: Primary salt screen of the compound of Formula II: XRPD post-cycling and post-stability (40° C., 75% RH overnight). The data set is classed as physicochemical. The note with it: compound of Formula II + the acid given as label; for XRPD post-cycling: cycled RT/40° C. over 24 hours; for XRPD post-stability: 40° C. and 75% RH overnight. As for the experimental part:
The salt screen was performed as follows. […] In cases where stock solutions could not be attained, the acid was added neat to the solution of the compound of Formula II.
The samples were then temperature cycled between ambient (RT) and 40° C. in 4-hour cycles over 24 hours. Each mixture was filtered and isolated solids were analyzed (wet) by XRPD to determine crystallinity and form. Samples in which solid was not observed were stored uncapped to allow solvent evaporation. The remaining samples were placed in an oven at 40° C. and 75% RH overnight. The samples were then reanalyzed by XRPD to determine any changes in form or crystallinity. The observations and results, including the different diffractogram patterns observed during the screen, are shown in Tables 29-53, below, and FIGS. 24A-24B through 47A-47B.

As for `O=S(=O)(O)CCS(=O)(=O)O` [1,2-Ethane disulfonic acid], the XRPD post-cycling entry by setting is: (Acetone/water (10%)) “No solid”; (Dioxane/water (10%)) “No solid”; (EtOH/water (10%)) “No solid”; (IPA/water (10%)) “No solid”; (MeCN/water (20%)) “No solid”; (THF/water (1%)) “No solid”. Further, the XRPD post-stability result reads like this: (from Acetone/water (10%)) “No solid”; (from Dioxane/water (10%)) “No solid”; (from EtOH/water (10%)) “No solid”; (from IPA/water (10%)) “No solid”; (from MeCN/water (20%)) “No solid”; (from THF/water (1%)) “No solid”.
`O=S(=O)(O)CCO` [2-Hydroxy ethanesulfonic acid]: the XRPD post-cycling entry is “Form 7” (Dioxane/water (10%)) and “Form 7” (EtOH/water (10%)). For the same compound, the XRPD post-stability result runs as follows: (from Dioxane/water (10%)) “Form 7”; (from EtOH/water (10%)) “Form 7”.
`O=S(=O)(O)c1ccccc1` [Benzene sulfonic acid]: the XRPD post-cycling entry is recorded as “No solid” (Dioxane/water (10%)); “Form 2” (EtOH/water (10%)); “Form 2” (IPA/water (10%)); “No solid” (MeCN/water (20%)); “No solid” (THF/water (1%)). For the same compound, the XRPD post-stability result (from Dioxane/water (10%)) is on record as “No solid”; the XRPD post-stability entry (from EtOH/water (10%)) is given as “Form 2”; the XRPD post-stability result (from IPA/water (10%)) is given as “Form 2”; the XRPD post-stability entry (from MeCN/water (20%)) is reported as “No solid”; the XRPD post-stability result (from THF/water (1%)) is listed as “No solid”.
Turning to `CCS(=O)(=O)O` [Ethane sulfonic acid], the XRPD post-cycling result was “No solid” (Acetone/water (10%)); “No solid” (Dioxane/water (10%)); “No solid” (EtOH/water (10%)); “Amorphous” (IPA/water (10%)); “No solid” (MeCN/water (20%)); “No solid” (THF/water (1%)). The XRPD post-stability entry by setting is: (from Acetone/water (10%)) “No solid”; (from Dioxane/water (10%)) “No solid”; (from EtOH/water (10%)) “No solid”; (from IPA/water (10%)) “Amorphous”; (from MeCN/water (20%)) “No solid”; (from THF/water (1%)) “No solid”.
For the compound `Cl` [Hydrochloric acid], the XRPD post-cycling result by setting is: (Acetone/water (10%)) “Form 2”; (Dioxane/water (10%)) “Form 2”; (EtOH/water (10%)) “Form 2”; (IPA/water (10%)) “Form 2”; (MeCN/water (20%)) “Form 2”; (THF/water (1%)) “Form 2”. The XRPD post-stability entry was “Form 2” (from Acetone/water (10%)); “Form 2” (from Dioxane/water (10%)); “Form 2” (from EtOH/water (10%)); “Form 2” (from IPA/water (10%)); “Form 2” (from MeCN/water (20%)); “Form 2” (from THF/water (1%)).
As to `N[C@@H](CC(=O)O)C(=O)O` [L-Aspartic acid], the XRPD post-cycling result by setting is: (IPA/water (10%)) “Form 8”; (THF/water (1%)) “Form 8”. Further, the XRPD post-stability entry by setting is: (from Acetone/water (10%)) “Form 14”; (from IPA/water (10%)) “Form 8”; (from MeCN/water (20%)) “Form 8”; (from THF/water (1%)) “Form 8”.
As to `O=C(O)/C=C\C(=O)O` [Maleic acid], the XRPD post-cycling entry is “Amorphous” (Acetone/water (10%)); “No solid” (Dioxane/water (10%)); “Amorphous” (EtOH/water (10%)); “Amorphous” (IPA/water (10%)); “No solid” (MeCN/water (20%)). Further, the XRPD post-stability entry runs as follows: (from Acetone/water (10%)) “Amorphous”; (from Dioxane/water (10%)) “No solid”; (from EtOH/water (10%)) “Amorphous”; (from IPA/water (10%)) “Amorphous”; (from MeCN/water (20%)) “No solid”; (from THF/water (1%)) “Form 15”.

These data come from patent US10584124B2, “Crystalline forms” (Array BioPharma Inc., priority 2017, dated 2020).
